Results from patent publication US20240398811A1, “PRC2 INHIBITORS FOR USE IN TREATING BLOOD DISORDERS” (ORIC Pharmaceuticals, Inc., priority 2021, published 2024).

Target: purified human, His-tagged PRC2 complex (Homo sapiens (Human), UniProt O75530)
Assay: Hot Spot HMT assay, inhibition of PRC2 enzymatic activity
Assay type: biochemical
Details: 10 nM PRC2 complex, 1 μM 3H-SAM, core histone H3, 10-point dose-response
How it was run: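 Methyl transfer from 1 μM tritiated SAM onto 0.05 mg/ml core histone H3, catalysed by 10 nM His/Flag-tagged human PRC2 holoenzyme, was run 1 hr at 30° C after a 20 min compound preincubation. Serial dilutions began at 1.0 μM; product captured on filters and counted.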

Sequence of purified human, His-tagged PRC2 complex (O75530 whole entry): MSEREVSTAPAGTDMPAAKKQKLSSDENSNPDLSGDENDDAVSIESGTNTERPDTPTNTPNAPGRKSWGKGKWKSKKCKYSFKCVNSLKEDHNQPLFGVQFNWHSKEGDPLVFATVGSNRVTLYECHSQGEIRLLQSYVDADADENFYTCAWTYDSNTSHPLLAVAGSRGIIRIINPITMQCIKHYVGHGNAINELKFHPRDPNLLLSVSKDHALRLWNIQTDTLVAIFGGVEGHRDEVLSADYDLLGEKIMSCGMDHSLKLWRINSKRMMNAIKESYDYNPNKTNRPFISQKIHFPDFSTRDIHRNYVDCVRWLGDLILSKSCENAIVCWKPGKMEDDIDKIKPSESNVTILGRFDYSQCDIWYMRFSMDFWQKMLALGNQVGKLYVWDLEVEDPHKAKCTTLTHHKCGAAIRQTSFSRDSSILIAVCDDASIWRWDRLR
Sequence of purified human, His-tagged PRC2 complex (Q15910 whole entry partner): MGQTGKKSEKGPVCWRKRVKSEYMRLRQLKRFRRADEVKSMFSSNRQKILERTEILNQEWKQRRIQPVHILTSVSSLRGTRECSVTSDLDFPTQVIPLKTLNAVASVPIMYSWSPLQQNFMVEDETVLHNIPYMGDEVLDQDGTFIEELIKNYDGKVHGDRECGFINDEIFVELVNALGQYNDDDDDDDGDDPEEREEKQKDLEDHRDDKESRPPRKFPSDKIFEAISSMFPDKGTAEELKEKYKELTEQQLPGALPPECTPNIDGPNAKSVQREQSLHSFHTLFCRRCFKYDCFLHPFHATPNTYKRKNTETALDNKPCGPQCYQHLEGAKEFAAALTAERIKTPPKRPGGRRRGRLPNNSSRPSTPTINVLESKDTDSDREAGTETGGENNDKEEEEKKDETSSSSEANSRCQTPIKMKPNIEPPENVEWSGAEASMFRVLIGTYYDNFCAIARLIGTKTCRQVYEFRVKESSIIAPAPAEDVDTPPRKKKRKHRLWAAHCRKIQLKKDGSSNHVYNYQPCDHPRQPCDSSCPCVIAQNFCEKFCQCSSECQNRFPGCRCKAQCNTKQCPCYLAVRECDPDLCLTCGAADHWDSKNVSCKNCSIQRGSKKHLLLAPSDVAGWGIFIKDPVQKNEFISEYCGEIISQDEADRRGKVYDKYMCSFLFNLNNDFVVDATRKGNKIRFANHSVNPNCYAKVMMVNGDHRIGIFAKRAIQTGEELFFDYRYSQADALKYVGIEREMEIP
Sequence of purified human, His-tagged PRC2 complex (Q15022 whole entry partner): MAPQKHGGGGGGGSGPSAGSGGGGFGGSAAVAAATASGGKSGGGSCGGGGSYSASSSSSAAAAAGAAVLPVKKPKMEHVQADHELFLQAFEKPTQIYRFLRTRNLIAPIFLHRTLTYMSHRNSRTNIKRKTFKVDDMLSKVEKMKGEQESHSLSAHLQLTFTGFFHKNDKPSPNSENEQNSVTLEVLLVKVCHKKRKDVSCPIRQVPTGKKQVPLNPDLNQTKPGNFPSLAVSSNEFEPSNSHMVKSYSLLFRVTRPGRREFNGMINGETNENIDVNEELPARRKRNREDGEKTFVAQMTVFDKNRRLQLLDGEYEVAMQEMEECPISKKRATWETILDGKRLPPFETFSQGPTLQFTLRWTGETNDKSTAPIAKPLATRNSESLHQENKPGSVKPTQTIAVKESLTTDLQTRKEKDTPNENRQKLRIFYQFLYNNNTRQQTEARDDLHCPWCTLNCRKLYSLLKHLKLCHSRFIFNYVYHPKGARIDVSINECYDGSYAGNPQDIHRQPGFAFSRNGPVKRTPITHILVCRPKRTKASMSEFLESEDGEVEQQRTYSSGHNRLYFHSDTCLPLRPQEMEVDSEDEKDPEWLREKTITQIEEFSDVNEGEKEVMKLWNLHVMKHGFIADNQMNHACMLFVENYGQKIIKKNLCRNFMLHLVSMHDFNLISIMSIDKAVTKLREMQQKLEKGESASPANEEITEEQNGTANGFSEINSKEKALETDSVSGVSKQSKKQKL
Sequence of purified human, His-tagged PRC2 complex (Q6ZN18 whole entry partner): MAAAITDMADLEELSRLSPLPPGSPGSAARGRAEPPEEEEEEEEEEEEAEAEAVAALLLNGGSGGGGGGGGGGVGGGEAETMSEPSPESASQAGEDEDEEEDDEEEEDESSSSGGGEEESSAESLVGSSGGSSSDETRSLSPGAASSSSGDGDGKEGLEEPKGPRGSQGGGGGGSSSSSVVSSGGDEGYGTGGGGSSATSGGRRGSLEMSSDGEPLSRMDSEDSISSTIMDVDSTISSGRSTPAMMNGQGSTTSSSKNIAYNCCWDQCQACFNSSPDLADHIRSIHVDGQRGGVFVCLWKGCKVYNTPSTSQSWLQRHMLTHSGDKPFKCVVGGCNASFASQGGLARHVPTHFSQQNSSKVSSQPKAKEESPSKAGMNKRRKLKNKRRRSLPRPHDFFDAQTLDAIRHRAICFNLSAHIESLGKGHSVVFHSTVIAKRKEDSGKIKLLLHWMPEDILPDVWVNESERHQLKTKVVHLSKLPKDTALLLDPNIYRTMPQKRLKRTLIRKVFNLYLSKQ
Sequence of purified human, His-tagged PRC2 complex (Q09028 whole entry partner): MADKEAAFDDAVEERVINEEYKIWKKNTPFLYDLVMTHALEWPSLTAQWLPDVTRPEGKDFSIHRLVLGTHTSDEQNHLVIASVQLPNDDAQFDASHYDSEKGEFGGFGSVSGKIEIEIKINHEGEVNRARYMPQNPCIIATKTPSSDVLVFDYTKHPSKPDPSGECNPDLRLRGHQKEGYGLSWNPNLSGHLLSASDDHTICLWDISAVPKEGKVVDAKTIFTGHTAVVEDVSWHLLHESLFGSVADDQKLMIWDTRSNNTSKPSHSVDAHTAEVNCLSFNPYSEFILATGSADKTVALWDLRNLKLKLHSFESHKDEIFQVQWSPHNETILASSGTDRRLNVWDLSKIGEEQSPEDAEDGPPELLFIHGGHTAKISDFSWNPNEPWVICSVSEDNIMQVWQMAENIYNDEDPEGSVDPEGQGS

Row | Structure (SMILES) | IC50
1 | CN(C)CCCn1cc(-c2cnc(NCc3c(F)ccc4c3CCO4)n3cc(C#N)nc23)cn1 [Example 103, 8-(1-(3-(dimethylamino)propyl)-1H-pyrazol-4-yl)-5-(((5-fluoro-2,3-dihydrobenzofuran-4-yl)methyl)amino)imidazo[1,2-c]pyrimidine-2-carbonitrile] | 100 to 500 nM
2 | N#Cc1cn2c(NCc3c(F)ccc4c3CCO4)ncc(-c3cnn(C4CCOC4)c3)c2n1 (stereo not shown) [Example 107, 5-(((5-fluoro-2,3-dihydrobenzofuran-4-yl)methyl)amino)-8-(1-(tetrahydrofuran-3-yl)-1H-pyrazol-4-yl)imidazo[1,2-c]pyrimidine-2-carbonitrile] | 100 to 500 nM
3 | N#Cc1cn2c(NCc3c(F)ccc4c3CCO4)ncc(-c3cnn(CC(F)(F)F)c3)c2n1 [Example 108, 5-(((5-fluoro-2,3-dihydrobenzofuran-4-yl)methyl)amino)-8-(1-(2,2,2-trifluoroethyl)-1H-pyrazol-4-yl)imidazo[1,2-c]pyrimidine-2-carbonitrile] | < 100 nM
4 | Cc1ncncc1-c1cnc(NCc2c(F)ccc3c2CCO3)n2cc(C#N)nc12 [Example 110, 5-(((5-fluoro-2,3-dihydrobenzofuran-4-yl)methyl)amino)-8-(4-methylpyrimidin-5-yl)imidazo[1,2-c]pyrimidine-2-carbonitrile] | < 100 nM
5 | Cn1nccc1-c1cnc(NCc2c(F)ccc3c2CCO3)n2cc(C#N)nc12 [Example 114, 5-(((5-fluoro-2,3-dihydrobenzofuran-4-yl)methyl)amino)-8-(1-methyl-1H-pyrazol-5-yl)imidazo[1,2-c]pyrimidine-2-carbonitrile] | < 100 nM
6 | CCn1cc(-c2cnc(NCc3c(F)ccc4c3CCO4)n3cc(C#N)nc23)cn1 [Example 119, 8-(1-ethyl-1H-pyrazol-4-yl)-5-(((5-fluoro-2,3-dihydrobenzofuran-4-yl)methyl)amino)imidazo[1,2-c]pyrimidine-2-carbonitrile] | 100 to 500 nM
7 | N#Cc1cn2c(NCc3c(F)ccc4c3CCO4)ncc(-c3cnn(C4CCOCC4)c3)c2n1 [Example 120, 5-(((5-fluoro-2,3-dihydrobenzofuran-4-yl)methyl)amino)-8-(1-(tetrahydro-2H-pyran-4-yl)-1H-pyrazol-4-yl)imidazo[1,2-c]pyrimidine-2-carbonitrile] | > 500 nM
8 | CC(C)(O)Cn1cc(-c2cnc(NCc3c(F)ccc4c3CCO4)n3cc(C#N)nc23)cn1 [Example 121, 5-(((5-fluoro-2,3-dihydrobenzofuran-4-yl)methyl)amino)-8-(1-(2-hydroxy-2-methylpropyl)-1H-pyrazol-4-yl)imidazo[1,2-c]pyrimidine-2-carbonitrile] | < 100 nM
9 | Cc1cc(-c2cnc(NCc3c(F)ccc4c3CCCO4)n3cc(C#N)nc23)n(C)n1 [Example 122, 8-(1,3-dimethyl-1H-pyrazol-5-yl)-5-(((6-fluorochroman-5-yl)methyl)amino)imidazo[1,2-c]pyrimidine-2-carbonitrile] | > 500 nM
10 | N#Cc1cn2c(NCc3c(F)ccc4c3CCO4)ncc(-c3ccc(N)nc3)c2n1 [Example 127, 8-(6-aminopyridin-3-yl)-5-(((5-fluoro-2,3-dihydrobenzofuran-4-yl)methyl)amino)imidazo[1,2-c]pyrimidine-2-carbonitrile] | < 100 nM
11 | N#Cc1ccc(-c2cnc(NCc3c(F)ccc4c3CCO4)n3cc(C#N)nc23)cn1 [Example 128, 8-(6-cyanopyridin-3-yl)-5-(((5-fluoro-2,3-dihydrobenzofuran-4-yl)methyl)amino)imidazo[1,2-c]pyrimidine-2-carbonitrile] | < 100 nM
12 | CC(=O)Nc1cc(-c2cnc(NCc3c(F)ccc4c3CCO4)n3cc(C#N)nc23)ccn1 [Example 131, N-(4-(2-cyano-5-(((5-fluoro-2,3-dihydrobenzofuran-4-yl)methyl)amino)imidazo[1,2-c]pyrimidin-8-yl)pyridin-2-yl)acetamide] | < 100 nM
13 | N#Cc1cn2c(NCc3c(F)ccc4c3CCO4)ncc(-c3cncc(C(F)(F)F)c3)c2n1 [Example 132, 5-(((5-fluoro-2,3-dihydrobenzofuran-4-yl)methyl)amino)-8-(5-(trifluoromethyl)pyridin-3-yl)imidazo[1,2-c]pyrimidine-2-carbonitrile] | > 500 nM

Now from value to compound:

Row | IC50 | Structure (SMILES)
14 | 100 to 500 nM | CN(C)CCn1cc(-c2cnc(NCc3c(F)ccc4c3CCO4)n3cc(C#N)nc23)cn1 [Example 102, 8-(1-(2-(dimethylamino)ethyl)-1H-pyrazol-4-yl)-5-(((5-fluoro-2,3-dihydrobenzofuran-4-yl)methyl)amino)imidazo[1,2-c]pyrimidine-2-carbonitrile]
15 | > 500 nM | Cc1n[nH]c(C)c1-c1cnc(NCc2c(F)ccc3c2CCO3)n2cc(C#N)nc12 [Example 104, 8-(3,5-dimethyl-1H-pyrazol-4-yl)-5-(((5-fluoro-2,3-dihydrobenzofuran-4-yl)methyl)amino)imidazo[1,2-c]pyrimidine-2-carbonitrile]
16 | < 100 nM | Cc1ncccc1-c1cnc(NCc2c(F)ccc3c2CCO3)n2cc(C#N)nc12 [Example 105, 5-(((5-fluoro-2,3-dihydrobenzofuran-4-yl)methyl)amino)-8-(2-methylpyridin-3-yl)imidazo[1,2-c]pyrimidine-2-carbonitrile]
17 | 100 to 500 nM | N#Cc1cn2c(NCc3c(F)ccc4c3CCO4)ncc(-c3cnn(C4COC4)c3)c2n1 [Example 106, 5-(((5-fluoro-2,3-dihydrobenzofuran-4-yl)methyl)amino)-8-(1-(oxetan-3-yl)-1H-pyrazol-4-yl)imidazo[1,2-c]pyrimidine-2-carbonitrile]
18 | < 100 nM | N#Cc1cn2c(NCc3c(F)ccc4c3CCO4)ncc(-c3cnccc3Cl)c2n1 [Example 109, 8-(4-chloropyridin-3-yl)-5-(((5-fluoro-2,3-dihydrobenzofuran-4-yl)methyl)amino)imidazo[1,2-c]pyrimidine-2-carbonitrile]
19 | < 100 nM | Cn1nc(C(F)(F)F)cc1-c1cnc(NCc2c(F)ccc3c2CCO3)n2cc(C#N)nc12 [Example 111, 5-(((5-fluoro-2,3-dihydrobenzofuran-4-yl)methyl)amino)-8-(1-methyl-3-(trifluoromethyl)-1H-pyrazol-5-yl)imidazo[1,2-c]pyrimidine-2-carbonitrile]
20 | < 100 nM | CN(C)Cc1ccc(-c2cnc(NCc3c(F)ccc4c3CCO4)n3cc(C#N)nc23)cc1 [Example 112, 8-(4-((dimethylamino)methyl)phenyl)-5-(((5-fluoro-2,3-dihydrobenzofuran-4-yl)methyl)amino)imidazo[1,2-c]pyrimidine-2-carbonitrile]
21 | < 100 nM | COc1cc(-c2cnc(NCc3c(F)ccc4c3CCO4)n3cc(C#N)nc23)ccn1 [Example 113, 5-(((5-fluoro-2,3-dihydrobenzofuran-4-yl)methyl)amino)-8-(2-methoxypyridin-4-yl)imidazo[1,2-c]pyrimidine-2-carbonitrile]
22 | < 100 nM | CN1CCN(C(=O)c2ccc(-c3cnc(NCc4c(F)ccc5c4CCO5)n4cc(C#N)nc34)cc2)CC1 [Example 115, 5-(((5-fluoro-2,3-dihydrobenzofuran-4-yl)methyl)amino)-8-(4-(4-methylpiperazine-1-carbonyl)phenyl)imidazo[1,2-c]pyrimidine-2-carbonitrile]
23 | < 100 nM | N#Cc1cn2c(NCc3c(F)ccc4c3CCO4)ncc(-c3ccc(C4CC4)nc3)c2n1 [Example 116, 8-(6-cyclopropylpyridin-3-yl)-5-(((5-fluoro-2,3-dihydrobenzofuran-4-yl)methyl)amino)imidazo[1,2-c]pyrimidine-2-carbonitrile]
24 | 100 to 500 nM | COCCn1cc(-c2cnc(NCc3c(F)ccc4c3CCO4)n3cc(C#N)nc23)cn1 [Example 117, 5-(((5-fluoro-2,3-dihydrobenzofuran-4-yl)methyl)amino)-8-(1-(2-methoxyethyl)-1H-pyrazol-4-yl)imidazo[1,2-c]pyrimidine-2-carbonitrile]
25 | < 100 nM | N#Cc1cn2c(NCc3c(F)ccc4c3CCO4)ncc(-c3cnn(C4CCCCO4)c3)c2n1 (stereo not shown) [Example 118, 5-(((5-fluoro-2,3-dihydrobenzofuran-4-yl)methyl)amino)-8-(1-(tetrahydro-2H-pyran-2-yl)-1H-pyrazol-4-yl)imidazo[1,2-c]pyrimidine-2-carbonitrile]
26 | < 100 nM | COc1cc(-c2cnc(NCc3c(F)ccc4c3CCO4)n3cc(C#N)nc23)c(F)cn1 [Example 123, 5-(((5-fluoro-2,3-dihydrobenzofuran-4-yl)methyl)amino)-8-(5-fluoro-2-methoxypyridin-4-yl)imidazo[1,2-c]pyrimidine-2-carbonitrile]
27 | < 100 nM | CCOc1ncccc1-c1cnc(NCc2c(F)ccc3c2CCO3)n2cc(C#N)nc12 [Example 124, 8-(2-ethoxypyridin-3-yl)-5-(((5-fluoro-2,3-dihydrobenzofuran-4-yl)methyl)amino)imidazo[1,2-c]pyrimidine-2-carbonitrile]
28 | < 100 nM | COc1cc(-c2cnc(NCc3c(F)ccc4c3CCO4)n3cc(C#N)nc23)c(OC)cn1 [Example 125, 8-(2,5-dimethoxypyridin-4-yl)-5-(((5-fluoro-2,3-dihydrobenzofuran-4-yl)methyl)amino)imidazo[1,2-c]pyrimidine-2-carbonitrile]
29 | 100 to 500 nM | N#Cc1cn2c(NCc3c(F)ccc4c3CCO4)ncc(-c3ccc(C(F)(F)F)nc3)c2n1 [Example 126, 5-(((5-fluoro-2,3-dihydrobenzofuran-4-yl)methyl)amino)-8-(6-(trifluoromethyl)pyridin-3-yl)imidazo[1,2-c]pyrimidine-2-carbonitrile]
30 | < 100 nM | Cc1ncc(-c2cnc(NCc3c(F)ccc4c3CCO4)n3cc(C#N)nc23)cc1N [Example 129, 8-(5-amino-6-methylpyridin-3-yl)-5-(((5-fluoro-2,3-dihydrobenzofuran-4-yl)methyl)amino)imidazo[1,2-c]pyrimidine-2-carbonitrile]
31 | 100 to 500 nM | COc1ncc(-c2cnc(NCc3c(F)ccc4c3CCO4)n3cc(C#N)nc23)cc1C#N [Example 130, 8-(5-cyano-6-methoxypyridin-3-yl)-5-(((5-fluoro-2,3-dihydrobenzofuran-4-yl)methyl)amino)imidazo[1,2-c]pyrimidine-2-carbonitrile]
